Results from ChEMBL document CHEMBL1129232, “Synthesis and anti-HIV activity of dihydroisoxazole 6-chloropurine and adenine” (Bioorg Med Chem Lett, 1996).
pEC50, pIC50: −log10 of the molar value.

What was measured:
[1] = test system: CCRF-CEM; experiment: Compound was evaluated for cytotoxicity against CEM cells; format: functional, cell-based, Homo sapiens
[2] = test system: Vero; experiment: Compound was evaluated for cytotoxicity against Vero cells; format: functional, cell-based; details: Chlorocebus sabaeus
[3] = Median effective dose required for anti HIV-1 activity in PBM cells(Human lymphocytes); format: functional, cell-based; details: PBMC
[4] = Compound was evaluated for cytotoxicity against human lymphocytes (PBM cells); format: functional, cell-based; details: PBMC

| pEC50 [3] | Structure (SMILES) | pIC50 ([1]; Homo sapiens, CCRF-CEM) | pIC50 [2] | pIC50 [4] | pIC50 ([1]; ccrf-cem) |
| --- | --- | --- | --- | --- | --- |
| 4.46 | OCC1=NOC(n2cnc3c(Cl)ncnc32)C1 (stereo unspecified) | 4.45 | < 4.00 | 4.13 |  |
| 4.26 | Nc1ncnc2c1ncn2C1CC(CO)=NO1 (stereo unspecified) | < 4.00 | < 4.00 | < 4.00 |  |

| Structure (SMILES) | pEC50 [3] | pIC50 ([1]; Homo sapiens, CCRF-CEM) | pIC50 [2] | pIC50 [4] | pIC50 ([1]; ccrf-cem) |
| --- | --- | --- | --- | --- | --- |
| Cc1cn([C@H]2C[C@H](N=[N+]=[N-])[C@@H](CO)O2)c(=O)[nH]c1=O [ZIDOVUDINE] | 8.40 |  |  | < 4.00 | 4.85 |
